Experimental data from PubChem BioAssay AID651650 (Sanford-Burnham Center for Chemical Genomics, 2012).
Active and inactive are the calls of the source.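 The calls were made as follows: active = mean IC50 below 20 µM in each of the two panels, so potent in both; inactive = the rest.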

Target: Neuropilin-1 (Homo sapiens) (UniProt O14786)
Test: NRP-1 b1b2 CendR peptide binding inhibitors, dose response, biochemical, FP and AlphaScreen panel (AID 651650)
Conditions: NRP-1 b1b2 / RPARPAR peptide binding, FP or AlphaScreen
[1] = AlphaScreen, run 1, individual panel run IC50
[2] = FP, run 1, individual panel run IC50
[3] = FP, run 2, individual panel run IC50

Sequence of Neuropilin-1 (Homo sapiens) (O14786 whole entry, looked up): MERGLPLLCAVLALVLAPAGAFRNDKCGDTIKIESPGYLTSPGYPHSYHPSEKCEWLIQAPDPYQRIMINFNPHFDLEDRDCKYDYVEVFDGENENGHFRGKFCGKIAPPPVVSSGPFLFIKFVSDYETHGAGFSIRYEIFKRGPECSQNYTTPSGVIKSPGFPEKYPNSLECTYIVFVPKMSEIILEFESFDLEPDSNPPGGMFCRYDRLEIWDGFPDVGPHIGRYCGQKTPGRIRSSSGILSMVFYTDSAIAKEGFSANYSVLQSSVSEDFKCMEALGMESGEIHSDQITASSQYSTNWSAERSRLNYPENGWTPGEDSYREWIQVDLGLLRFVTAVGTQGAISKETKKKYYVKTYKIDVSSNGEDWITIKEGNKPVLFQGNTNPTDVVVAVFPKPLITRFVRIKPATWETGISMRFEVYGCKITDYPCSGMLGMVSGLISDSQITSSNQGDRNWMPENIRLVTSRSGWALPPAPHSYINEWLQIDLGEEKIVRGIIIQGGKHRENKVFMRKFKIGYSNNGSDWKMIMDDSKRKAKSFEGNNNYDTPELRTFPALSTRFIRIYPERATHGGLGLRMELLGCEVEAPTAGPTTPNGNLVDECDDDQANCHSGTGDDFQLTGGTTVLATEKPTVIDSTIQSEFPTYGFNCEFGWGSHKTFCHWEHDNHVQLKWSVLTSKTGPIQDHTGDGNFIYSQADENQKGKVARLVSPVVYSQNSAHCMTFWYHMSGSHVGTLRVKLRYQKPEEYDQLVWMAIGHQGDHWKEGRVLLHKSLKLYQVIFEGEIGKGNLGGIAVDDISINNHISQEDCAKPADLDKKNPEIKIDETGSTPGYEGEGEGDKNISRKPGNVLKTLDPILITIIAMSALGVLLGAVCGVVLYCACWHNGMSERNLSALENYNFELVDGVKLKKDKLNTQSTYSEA

SMILES | IC50 (AlphaScreen, mean of runs) | IC50 [1] | IC50 (FP, mean of runs) | IC50 [2] | IC50 [3]
CCOc1ccc(S(=O)(=O)NNC(=O)c2cc3ccccc3o2)cc1 | > 100 µM (inactive) | > 100 µM | > 95 µM (inactive) | > 95 µM | > 95 µM
Cc1ccc(S(=O)(=O)N2[C@@H](c3ccc(Cl)cc3)C(C(=O)OC(C)(C)C)=CC[C@H]2c2ccc(Cl)c(Cl)c2)cc1 | inactive | 41 µM | > 95 µM (inactive) | > 95 µM | > 95 µM
CCOc1ccccc1C1CC(=O)NC2=C1C(=O)CC(C)(C)C2 (stereo not given) | > 100 µM (inactive) | > 100 µM | > 95 µM (inactive) | > 95 µM | > 95 µM
Cc1ccc(Cn2nnnc2CN2CCC(n3nnc4ccccc43)CC2)cc1 | > 100 µM (inactive) | > 100 µM | > 95 µM (inactive) | > 95 µM | > 95 µM
Cc1cnccc1CNC(=O)CC1C(=O)NCCN1CC(C)(C)C (stereo not given) | > 100 µM (inactive) | > 100 µM | > 95 µM (inactive) | > 95 µM | > 95 µM
COc1ccc2c(c1)N(C)/C(=C1/SC(=NCc3ccccc3)N(c3ccccc3)C1=O)S2 | > 100 µM (inactive) | > 100 µM | > 95 µM (inactive) | > 95 µM | > 95 µM
CCOCCCNC(=O)C(c1ccc(C)cc1)N(Cc1cccs1)C(=O)c1ccccc1O (stereo not given) | > 100 µM (inactive) | > 100 µM | > 95 µM (inactive) | > 95 µM | > 95 µM
COc1ccc(/C=N/NC(=O)c2cc(C(C)(C)C)[nH]n2)cc1COc1ccc(F)cc1F | > 100 µM (inactive) | > 100 µM | > 95 µM (inactive) | > 95 µM | > 95 µM
O=C1c2cc([N+](=O)[O-])cc3cc([N+](=O)[O-])cc(c23)C(=O)N1c1ccccn1 | > 100 µM (inactive) | > 100 µM | > 95 µM (inactive) | > 95 µM | > 95 µM
Cc1ccc2cc(CN(c3ccccc3C)S(=O)(=O)c3ccccc3)c(=O)[nH]c2c1 | > 100 µM (inactive) | > 100 µM | > 95 µM (inactive) | > 95 µM | > 95 µM
CCc1ccc(NC(=O)CCn2nc(C)c(S(=O)(=O)N3CCCCC3)c2C)cc1 | > 100 µM (inactive) | > 100 µM | > 95 µM (inactive) | > 95 µM | > 95 µM
O=C(Nc1cccc2c1CCCC2)c1cc(C2CCCCN2C(=O)CCCc2ccccc2)on1 (stereo not given) | > 100 µM (inactive) | > 100 µM | > 95 µM (inactive) | > 95 µM | > 95 µM
CCc1ccccc1NC(=O)c1ccccc1N1C(=O)C2C3C=CC(C3)C2C1=O (stereo not given) | inactive | 96.8 µM | > 95 µM (inactive) | > 95 µM | > 95 µM
Cc1onc(-c2ccccc2)c1C(=O)N1CCCC1 | > 100 µM (inactive) | > 100 µM | > 95 µM (inactive) | > 95 µM | > 95 µM
Fc1cnc(N2CCOCC2)nc1N1CCOCC1 | > 100 µM (inactive) | > 100 µM | > 95 µM (inactive) | > 95 µM | > 95 µM
CCCCOc1ccc(C(=O)N/C(=C/C=C/c2ccccc2)C(=O)NCCCO)cc1 | > 100 µM (inactive) | > 100 µM | > 95 µM (inactive) | > 95 µM | > 95 µM
CCN(CC(=O)NCc1cccs1)S(=O)(=O)c1ccc(C(C)C)cc1 | > 100 µM (inactive) | > 100 µM | > 95 µM (inactive) | > 95 µM | > 95 µM
CC1CCC(NC(=O)C2CCC(CNS(=O)(=O)c3cccc4cccnc34)CC2)CC1 (stereo not given) | > 100 µM (inactive) | > 100 µM | > 95 µM (inactive) | > 95 µM | > 95 µM
Cn1cccc1C1Nc2ccccc2NC2=C1C(=O)CC(C)(C)C2 (stereo not given) | > 100 µM (inactive) | > 100 µM | > 95 µM (inactive) | > 95 µM | > 95 µM
CC1CCN(C(=O)CSc2nncn2C)CC1 | > 100 µM (inactive) | > 100 µM | > 95 µM (inactive) | > 95 µM | > 95 µM
Cc1ccc(NC(=S)N2CCN(Cc3ccccc3)CC2)cc1 | > 100 µM (inactive) | > 100 µM | > 95 µM (inactive) | > 95 µM | > 95 µM
Cn1cnc2cc(NC(=O)c3ccco3)ccc21 | 18.5 µM | 18.5 µM | > 95 µM (inactive) | > 95 µM | > 95 µM
CCOc1ccc(/C=C2/Sc3ccc(C(=O)NCC4CCCO4)cc3N(C)C2=O)cc1OC (stereo not given) | > 100 µM (inactive) | > 100 µM | > 95 µM (inactive) | > 95 µM | > 95 µM

SMILES | IC50 (AlphaScreen, mean of runs) | IC50 [1] | IC50 (FP, mean of runs) | IC50 [2] | IC50 [3]
CCC(=O)Nc1nc2nc(-c3ccccc3)cc(-c3ccccc3)n2n1 | > 100 µM (inactive) | > 100 µM | > 95 µM (inactive) | > 95 µM | > 95 µM
CCc1ccc(OC(=O)CN2C(=O)c3ccccc3C2=O)cc1 | inactive | 32 µM | > 95 µM (inactive) | > 95 µM | > 95 µM
O=C(CCC(=O)Nc1ccccc1Cl)NN=C1CCCC1 | inactive | 43.4 µM | > 95 µM (inactive) | > 95 µM | > 95 µM
COc1cc(C(=O)NCc2ccccc2)cc(Br)c1OC | > 100 µM (inactive) | > 100 µM | > 95 µM (inactive) | > 95 µM | > 95 µM
O=C(c1ncn(Cc2ccccc2)c1C(=O)N1CCc2ccccc2C1)N1CCc2ccccc2C1 | > 100 µM (inactive) | > 100 µM | > 95 µM (inactive) | > 95 µM | > 95 µM
CCCCCc1c(-c2cccc(Cl)c2)ncn1CCc1ccccc1OC | > 100 µM (inactive) | > 100 µM | > 95 µM (inactive) | > 95 µM | > 95 µM
O=C1CCC[C@@H]2Cc3nc4cc5c(cc4cc3[C@@H]3CCN1[C@H]23)OCO5 | > 100 µM (inactive) | > 100 µM | > 95 µM (inactive) | > 95 µM | > 95 µM
C=C[C@]12CC[C@H](OC(C)=O)CC1=CCC1C2CC[C@@]2(C)C1CCC21OCCO1 (stereo not given in full) | > 100 µM (inactive) | > 100 µM | > 95 µM (inactive) | > 95 µM | > 95 µM
Nc1ccc(C(=O)Nc2ccc(Nc3ccncc3)cc2)c([N+](=O)[O-])c1 | 2.27 µM | 2.27 µM | > 95 µM (inactive) | > 95 µM | > 95 µM
CC(C)(C)N(NC(=O)Nc1ccc(Cl)cc1)C(=O)c1ccccc1 | > 100 µM (inactive) | > 100 µM | > 95 µM (inactive) | > 95 µM | > 95 µM
CCOC(=O)c1ccc(NC(=O)CN2CCc3ccccc3C2)cc1 | > 100 µM (inactive) | > 100 µM | > 95 µM (inactive) | > 95 µM | > 95 µM
Cn1c(=NC(=O)COc2ccccc2)sc2ccccc21 | > 100 µM (inactive) | > 100 µM | > 95 µM (inactive) | > 95 µM | > 95 µM
COC(=O)n1c(=O)oc2ccccc21 | > 100 µM (inactive) | > 100 µM | > 95 µM (inactive) | > 95 µM | > 95 µM
Cc1nc(SCc2ccc(C(=O)O)cc2)nc2c1CCCC2 | > 100 µM (inactive) | > 100 µM | > 95 µM (inactive) | > 95 µM | > 95 µM
COC(=O)c1cccc(NC(=S)NCCC2=CCCCC2)c1 | > 100 µM (inactive) | > 100 µM | > 95 µM (inactive) | > 95 µM | > 95 µM
O=C(CSc1nnc(Cc2ccccc2)n1Cc1ccccc1)NCc1ccco1 | > 100 µM (inactive) | > 100 µM | > 95 µM (inactive) | > 95 µM | > 95 µM
CC(=O)Nc1ccc(NC(=O)C2CC(=O)N=C(N)S2)cc1 (stereo not given) | > 100 µM (inactive) | > 100 µM | > 95 µM (inactive) | > 95 µM | > 95 µM
Cc1ccnc(N2CCC(C(=O)Nc3ccc4c(c3)OCCO4)CC2)n1 | > 100 µM (inactive) | > 100 µM | > 95 µM (inactive) | > 95 µM | > 95 µM
CSc1cccc(CN2CCN(Cc3ccccc3)C(CCO)C2)c1 (stereo not given) | > 100 µM (inactive) | > 100 µM | > 95 µM (inactive) | > 95 µM | > 95 µM
Cc1onc(-c2ccc(Cl)cc2Cl)c1-c1csc(COc2ccccc2)n1 | inactive | 59.1 µM | > 95 µM (inactive) | > 95 µM | > 95 µM
Cc1nc(Nc2ccc(S(N)(=O)=O)cc2)oc1C | inactive | 73.1 µM | > 95 µM (inactive) | > 95 µM | > 95 µM
COc1ccc([C@H]2/C=C\CN(S(C)(=O)=O)[C@@H](C)C(=O)N2Cc2ccc(F)cc2)cc1 | > 100 µM (inactive) | > 100 µM | > 95 µM (inactive) | > 95 µM | > 95 µM
